In US20080194616A1, “PYRIDOPYRIMIDINONE COMPOUNDS USEFUL IN TREATING SODIUM CHANNEL-MEDIATED DISEASES OR CONDITIONS” (Xenon Pharmaceuticals Inc., priority 2007, published 2008):
Structures can show the parent of a compound that is named as a salt.

Legend:
[1] = system: sodium channel; experiment: Guanidine Influx Assay (In Vitro Assay); format: cell-based, human or rat; conditions: known cell line that expresses a sodium channel; read-out: IC50 Activity Level
Description: This example describes an in vitro assay for testing and profiling test agents against human or rat sodium channels stably expressed in cells of either an endogenous or recombinant origin. The assay is also useful for determining the IC-50 of a sodium channel blocking compound. The assay is based on the guanidine flux assay described by Reddy, N. L., et al., J. Med. Chem. (1998), 41(17):3298-302.
The guanidine influx assay is a radiotracer flux assay used to determine ion flux activity of sodium channels in a high-throughput microplate-based format. The assay uses ^14C-guanidine hydrochloride in combination with various known sodium channel modulators, to assay the potency of test agents. Potency is determined by an IC-50 calculation. Selectivity is determined by comparing potency of the compound for the channel of interest to its potency against other sodium channels (also called ‘selectivity profiling’).
Each of the test agents is assayed against cells that express the channels of interest. Voltage gated sodium channels are either TTX sensitive or insensitive. This property is useful when evaluating the activities of a channel of interest when it resides in a mixed population with other sodium channels. The following Table 1 summarizes cell lines useful in screening for a certain channel activity in the presence or absence of TTX.
Cells expressing the channel of interest are grown according to the supplier or in the case of a recombinant cell in the presence of selective growth media such as G418 (Gibco/Invitrogen). The cells are disassociated from the culture dishes with an enzymatic solution (1×) Trypsin/EDTA (Gibco/Invitrogen) and analyzed for density and viability using haemocytometer (Neubauer). Disassociated cells are washed and resuspended in their culture media then plated into Scintiplates (Beckman Coulter Inc.) (approximately 100,000 cells/well) and incubated at 37° C./5% CO2. for 20-24 hours. After an extensive wash with Low sodium HEPES-buffered saline solution (LNHBSS) (150 mM Choline Chloride, […] (Sigma), 1 mM Calcium Chloride, 5 mM Potassium Chloride, 1 mM Magnesium Chloride, 10 mM Glucose) agents diluted with LNHBSS are added to each well. (Varying concentrations of test agent may be used). The activation/radiolabel mixture contains aconitine (Sigma), and ^14C-guanidine hydrochloride (ARC).
After loading the cells with test agent and activation/radiolabel mixture, the Scintiplates are incubated at ambient temperature. Following the incubation, the Scintplates are extensively washed with LNHBSS supplemented with guanidine (Sigma). The Scintiplates are dried and then counted using a Wallac MicroBeta TriLux (Perkin-Elmer Life Sciences). The ability of the test agent to block sodium channel activity is determined by comparing the amount of ^14C-guanidine present inside the cells expressing the different sodium channels.
IC-50 value of a test agent for a specific sodium channel may be determined using the above general method. IC-50 may be determined using a 3,8,10,12 or 16 point curve in duplicate or triplicate with a starting concentration of 1, 5 or 10 μM diluted serially with a final concentration reaching the sub-nanomolar, nanomolar and low micromolar ranges. Typically the mid-point concentration of test agent is set at 1 μM, and sequential concentrations of half dilutions greater or smaller are applied (e.g. 0.5 μM; […] and 0.25 μM; 10 μM and 0.125 μM; 20 μM etc.). The IC-50 curve is calculated using the 4 Parameter Logistic Model or Sigmoidal Dose-Response Model formula (fit=(A+((B−A)/(1+((C/x)̂D)))).

Row | Compound | melting point [°C] | IC50 [1] [µM]
1 | CC(C)c1nc2ccccn2c(=O)c1-c1ccc(N[C@@H]2CCN(C(=O)OC(C)(C)C)C2)cc1 (stereo in doubt) [Example 3.6, tert-butyl 3-({4-[2-(1-methylethyl)-4-oxo-4H-pyrido[1,2-a]pyrimidin-3-yl]phenyl}amino)pyrrolidine-1-carboxylate] | 232 to 236 | ≥ 10
2 | CC(C)c1nc2ccccn2c(=O)c1-c1ccc(Cl)cc1 [Example 1.5, 3-(4-chlorophenyl)-2-(1-methylethyl)-4H-pyrido[1,2-a]pyrimidin-4-one] | 98 to 100 | ≥ 10
3 | CCCCc1nc2ccccn2c(=O)c1-c1ccc(N)cc1 [Example 1.14, 2-butyl-3-(4-aminophenyl)-4H-pyrido[1,2-a]pyrimidin-4-one] | 95 to 97 | 0.1 to 1
4 | CCCCc1nc2ccccn2c(=O)c1-c1ccc(NC(=O)OC(C)(C)C)cc1 [Example 1.15, tert-butyl 4-(2-butyl-4-oxo-4H-pyrido[1,2-a]pyrimidin-3-yl)phenylcarbamate] | 132 to 135 | ≥ 10
5 | COc1nc2ccccn2c(=O)c1-c1ccc(Cl)cc1 [Example 1.24, 3-(4-chlorophenyl)-2-methoxy-4H-pyrido[1,2-a]pyrimidin-4-one] | 149 to 151 | ≥ 10
6 | CCCCc1nc2ccccn2c(=O)c1-c1ccc(N[C@@H]2CCN(C(=O)OC(C)(C)C)C2)cc1C [Example 3.10, (R)-tert-butyl 3-{[4-(2-butyl-4-oxo-4H-pyrido[1,2-a]pyrimidin-3-yl)-3-methylphenyl]amino}pyrrolidine-1-carboxylate] | 162 to 168 | ≥ 10
7 | COc1nc2ccccn2c(=O)c1-c1ccc(NC2CCN(C(=O)OC(C)(C)C)C2)cc1 (stereo not shown) [Example 3.19, tert-butyl 3-{[4-(2-methoxy-4-oxo-4H-pyrido[1,2-a]pyrimidin-3-yl)phenyl]amino}pyrrolidine-1-carboxylate] | 102 to 104 | ≥ 10
8 | CCCNc1nc2ccccn2c(=O)c1-c1ccc(NC2CCN(C(=O)OC(C)(C)C)C2)cc1 (stereo not shown) [Example 3.21, tert-butyl 3-({4-[4-oxo-2-(propylamino)-4H-pyrido[1,2-a]pyrimidin-3-yl]phenyl}amino)pyrrolidine-1-carboxylate] | 187 to 190 | ≥ 10
9 | CC(C)Nc1nc2ccccn2c(=O)c1-c1ccc(NC2CCN(C(=O)OC(C)(C)C)C2)cc1 (stereo not shown) [Example 3.22, tert-butyl 3-[(4-{2-[(1-methylethyl)amino]-4-oxo-4H-pyrido[1,2-a]pyrimidin-3-yl}phenyl)amino]pyrrolidine-1-carboxylate] | 210 to 212 | ≥ 10
10 | CCCCc1nc2ccccn2c(=O)c1-c1ccc(NC(=O)[C@@H]2CCCN2C(=O)OC(C)(C)C)cc1 [Example 5, (S)-tert-butyl 2-{[4-(2-butyl-4-oxo-4H-pyrido[1,2-a]pyrimidin-3-yl)phenyl]carbamoyl}-pyrrolidine-1-carboxylate] | 179 to 187 | ≥ 10
11 | CCCCc1nc2ccccn2c(=O)c1-c1ccc(N[C@@H]2CCNC2)cc1.Cl [Example 8, (R)-2-butyl-3-(4-(pyrrolidin-3-ylamino)phenyl)-4H-pyrido[1,2-a]pyrimidin-4-one hydrochloride] | 171 to 174 | 1 to 10
12 | COc1nc2ccccn2c(=O)c1-c1ccc(NC2CCNC2)cc1 (stereo not shown) [Example 9, 2-methoxy-3-[4-(pyrrolidin-3-ylamino)phenyl]-4H-pyrido[1,2-a]pyrimidin-4-one trifluoroacetate] |  | ≥ 10
13 | CCCCc1nc2ccccn2c(=O)c1-c1ccc(OS(=O)(=O)C(F)(F)F)cc1 [Example 12, 4-(2-butyl-4-oxo-4H-pyrido[1,2-a]pyrimidin-3-yl)phenyl trifluoromethanesulfonate] |  | ≥ 10
14 | CCCCc1nc2ccc(Cl)cn2c(=O)c1-c1ccc(O)cc1 [Example 13, 2-butyl-7-chloro-3-(4-hydroxyphenyl)-4H-pyrido[1,2-a]pyrimidin-4-one] |  | ≥ 10
15 | CCCCc1nc2ccccn2c(=O)c1-c1ccc(O[C@@H]2CCNC2)cc1 [Example 15, (R)-2-butyl-3-{4-[pyrrolidin-3-yloxy]phenyl}-4H-pyrido[1,2-a]pyrimidin-4-one hydrochloride] |  | ≥ 10

Other lines, results leading:

Row | melting point [°C] | IC50 [1] [µM] | Compound
16 |  | ≥ 10 | CCCCc1nc2ccccn2c(=O)c1-c1ccc(N[C@H]2CCNC2)cc1 [Example 7.1, (S)-2-butyl-3-{4-[pyrrolidin-3-ylamino]phenyl}-4H-pyrido[1,2-a]pyrimidin-4-one hydrochloride]
17 |  | ≥ 10 | CCCCc1nc2ccccn2c(=O)c1-c1ccc(N[C@@H]2CCNC2)c(F)c1 [Example 7.2, (R)-2-butyl-3-{3-fluoro-4-[(pyrrolidin-3-ylamino]phenyl}-4H-pyrido[1,2-a]pyrimidin-4-one hydrochloride]
18 |  | ≥ 10 | CCCCc1nc2ccccn2c(=O)c1-c1ccc(N[C@@H]2CCNC2)cc1C [Example 7.3, (R)-2-butyl-3-{2-methyl-4-[pyrrolidin-3-ylamino]phenyl}-4H-pyrido[1,2-a]pyrimidin-4-one hydrochloride]
19 |  | ≥ 10 | CCCCc1nc2ccccn2c(=O)c1-c1cccc(NC2CCNC2)c1 (stereo not shown) [Example 7.4, 2-butyl-3-[3-(pyrrolidin-3-ylamino)phenyl]-4H-pyrido[1,2-a]pyrimidin-4-one hydrochloride]
20 |  | ≥ 10 | CC(C)c1nc2ccccn2c(=O)c1-c1ccc(NC2CCNC2)cc1 (stereo not shown) [Example 7.5, 2-(1-methylethyl)-3-[4-(pyrrolidin-3-ylamino)phenyl]-4H-pyrido[1,2-a]pyrimidin-4-one hydrochloride]
21 |  | ≥ 10 | CC(C)CCc1nc2ccccn2c(=O)c1-c1ccc(N[C@@H]2CCNC2)cc1 [Example 7.6, (R)-2-isopentyl-3-(4-(pyrrolidin-3-ylamino)phenyl)-4H-pyrido[1,2-a]pyrimidin-4-one hydrochloride]
22 |  | 0.1 to 1 | O=c1c(-c2ccc(N[C@@H]3CCNC3)cc2)c(CCC2CC2)nc2ccccn12 [Example 7.7, (R)-2-(2-cyclopropylethyl)-3-(4-(pyrrolidin-3-ylamino)phenyl)-4H-pyrido[1,2-a]pyrimidin-4-one hydrochloride]
23 |  | ≥ 10 | CCCNc1nc2ccccn2c(=O)c1-c1ccc(NC2CCNC2)cc1 (stereo not shown) [Example 7.8, 2-(propylamino)-3-[4-(pyrrolidin-3-ylamino)phenyl]-4H-pyrido[1,2-a]pyrimidin-4-one hydrochloride]
24 |  | ≥ 10 | CC(C)Nc1nc2ccccn2c(=O)c1-c1ccc(NC2CCNC2)cc1 (stereo not shown) [Example 7.9, 2-[(1-methylethyl)amino]-3-[4-(pyrrolidin-3-ylamino)phenyl]-4H-pyrido[1,2-a]pyrimidin-4-one hydrochloride]
25 |  | ≥ 10 | CC(C)Nc1nc2ccccn2c(=O)c1-c1ccc(N[C@@H]2CCNC2)cc1 [Example 7.10, (R)-2-[(1-methylethyl)amino]-3-{4-[pyrrolidin-3-ylamino]phenyl}-4H-pyrido[1,2-a]pyrimidin-4-one hydrochloride]
26 |  | ≥ 10 | O=c1c(-c2ccc(N[C@@H]3CCNC3)cc2)c(N2CCCC2)nc2ccccn12 [Example 7.11, (R)-2-pyrrolidin-1-yl-3-{4-[pyrrolidin-3-ylamino]phenyl}-4H-pyrido[1,2-a]pyrimidin-4-one hydrogen chloride]
27 |  | ≥ 10 | CCCCc1nc2ccccn2c(=O)c1-c1ccc2c(c1)CCN2C1CCNC1 (stereo not shown) [Example 7.12, 2-butyl-3-(1-(pyrrolidin-3-yl)indolin-5-yl)-4H-pyrido[1,2-a]pyrimidin-4-one hydrochloride]
28 |  | ≥ 10 | CCCCc1nc2ccccn2c(=O)c1-c1ccc(N2CCNCC2)nc1 [Example 7.13, 2-butyl-3-(6-piperazin-1-ylpyridin-3-yl)-4H-pyrido[1,2-a]pyrimidin-4-one hydrochloride]
29 |  | ≥ 10 | CCCOc1nc2ccccn2c(=O)c1-c1ccc(N[C@@H]2CCNC2)cc1 [Example 9.1, (R)-2-propoxy-3-(4-(pyrrolidin-3-ylamino)phenyl)-4H-pyrido[1,2-a]pyrimidin-4-one trifluoroacetate]
